Assay results from ChEMBL document CHEMBL5131388, “Discovery of novel brain-penetrant GluN2B NMDAR antagonists via pharmacophore-merging strategy as anti-stroke therapeutic agents” (Eur J Med Chem, 2022).

Legend:
[1] = Tmax in Sprague-Dawley rat at 2.5 mg/kg, iv measured up to 24 hrs by LC/MS-MS analysis; type: ADME, organism-based; details: in vivo
[2] = Neuroprotective activity against NMDA-induced neurotoxicity in Sprague-Dawley rat hippocampal neurons assessed as increase in cell viability at 0.1 uM incubated for 18 hrs followed by NMDA addition and measured after 0.5 hrs by MTT assay; type: functional, Hippocampal neurone; details: time 18.5 hrs, 0.1 µM
[3] = Neuroprotective activity against NMDA-induced neurotoxicity in Sprague-Dawley rat hippocampal neurons assessed as increase in cell viability at 1 uM incubated for 18 hrs followed by NMDA addition and measured after 0.5 hrs by MTT assay; type: functional, Hippocampal neurone; details: time 18.5 hrs, 1 µM
[4] = Neuroprotective activity against NMDA-induced neurotoxicity in Sprague-Dawley rat hippocampal neurons assessed as increase in cell viability at 10 uM incubated for 18 hrs followed by NMDA addition and measured after 0.5 hrs by MTT assay; type: functional, Hippocampal neurone; details: time 18.5 hrs, 10 µM
Glutamate NMDA receptor = experiment: Displacement of [3H] ifenprodil from Wistar rat glutamate NMDA receptor incubated for 2 hrs by scintillation counting method; type: protein-complex assay
Rattus norvegicus [5] = experiment: Neuroprotective activity in Sprague-Dawley rat model of middle cerebral artery occlusion-induced ischemia-reperfusion injury assessed as decrease in neurological score at 20 mg/kg, po measured 24 hrs post injury by TTC staining based histological analysis; type: functional
Rattus norvegicus [6] = experiment: Neuroprotective activity in Sprague-Dawley rat model of middle cerebral artery occlusion-induced ischemia-reperfusion injury assessed as decrease in cerebral infarction rate at 20 mg/kg, po measured 24 hrs post injury by TTC staining based histological analysis; type: functional; parameters: scale not given: the % may be the effect or the level left
[7] = Tmax in Sprague-Dawley rat at 10 mg/kg, po measured up to 24 hrs by LC/MS-MS analysis; type: ADME, organism-based; details: in vivo
[8] = Cmax in Sprague-Dawley rat at 2.5 mg/kg, iv measured up to 24 hrs by LC/MS-MS analysis; type: ADME, organism-based; parameters: dose 2.5 mg/kg, time < 24 hrs, route iv; details: in vivo
[9] = Cmax in Sprague-Dawley rat at 10 mg/kg, po measured up to 24 hrs by LC/MS-MS analysis; type: ADME, organism-based; parameters: dose 10 mg/kg, time < 24 hrs, route po; details: in vivo
[10] = AUClast in Sprague-Dawley rat at 2.5 mg/kg, iv measured up to 24 hrs by LC/MS-MS analysis; type: ADME, organism-based; parameters: dose 2.5 mg/kg, time < 24 hrs, route iv; details: in vivo
[11] = AUClast in Sprague-Dawley rat at 10 mg/kg, po measured up to 24 hrs by LC/MS-MS analysis; type: ADME, organism-based; parameters: dose 10 mg/kg, time < 24 hrs, route po; details: in vivo
[12] = AUCinf in Sprague-Dawley rat at 2.5 mg/kg, iv measured up to 24 hrs by LC/MS-MS analysis; type: ADME, organism-based; parameters: dose 2.5 mg/kg, time < 24 hrs, route iv; details: in vivo
[13] = AUCinf in Sprague-Dawley rat at 10 mg/kg, po measured up to 24 hrs by LC/MS-MS analysis; type: ADME, organism-based; parameters: time < 24 hrs, dose 10 mg/kg, route po; details: in vivo
[14] = MRTinf in Sprague-Dawley rat at 2.5 mg/kg, iv measured up to 24 hrs by LC/MS-MS analysis; type: ADME, organism-based; details: in vivo
[15] = MRTinf in Sprague-Dawley rat at 10 mg/kg, po measured up to 24 hrs by LC/MS-MS analysis; type: ADME, organism-based; details: in vivo
[16] = Clearance in Sprague-Dawley rat at 2.5 mg/kg, iv measured up to 24 hrs by LC/MS-MS analysis; type: ADME, organism-based; details: in vivo
[17] = Half life in Sprague-Dawley rat at 2.5 mg/kg, iv measured up to 24 hrs by LC/MS-MS analysis; type: ADME, organism-based; details: in vivo
[18] = Half life in Sprague-Dawley rat at 10 mg/kg, po measured up to 24 hrs by LC/MS-MS analysis; type: ADME, organism-based; details: in vivo
[19] = Bioavailability in Sprague-Dawley rat at 2.5 mg/kg, iv measured up to 24 hrs by LC/MS-MS analysis; type: ADME, organism-based; details: in vivo
[20] = Ratio AUClast in Sprague-Dawley rat brain to plasma at 2.5 mg/kg, iv measured up to 24 hrs by LC/MS-MS analysis; type: ADME, organism-based; details: brain and plasma
[21] = Ratio AUClast in Sprague-Dawley rat brain to plasma at 10 mg/kg, po measured up to 24 hrs by LC/MS-MS analysis; type: ADME, organism-based; details: brain and plasma
[22] = Toxicity in Sprague-Dawley rat assessed as animal death at 300 mg/kg, po administered as repeated dose once daily for 2 weeks; type: organism-based; details: in vivo, 336 h
[23] = Toxicity in Sprague-Dawley rat assessed as change in liver/brain index at 150 to 300 mg/kg, po administered as repeated dose once daily for 2 weeks; type: organism-based; details: in vivo, 336 h, dose 150-300 mg/kg
[24] = Toxicity in Sprague-Dawley rat assessed as change in kidney/brain index at 150 to 300 mg/kg, po administered as repeated dose once daily for 2 weeks; type: organism-based; details: in vivo, 336 h, dose 150-300 mg/kg
[25] = Toxicity in Sprague-Dawley rat assessed as change in spleen/brain index at 150 to 300 mg/kg, po administered as repeated dose once daily for 2 weeks; type: organism-based; details: in vivo, 336 h, dose 150-300 mg/kg
[26] = Toxicity in Sprague-Dawley rat assessed as change in white blood cell count at 150 to 300 mg/kg, po administered as repeated dose once daily for 2 weeks; type: organism-based; details: in vivo, 336 h, dose 150-300 mg/kg
[27] = Toxicity in Sprague-Dawley rat assessed as change in ALT level at 150 to 300 mg/kg, po administered as repeated dose once daily for 2 weeks; type: organism-based; details: in vivo, 336 h, dose 150-300 mg/kg
[28] = Toxicity in Sprague-Dawley rat assessed as change in AST level at 150 to 300 mg/kg, po administered as repeated dose once daily for 2 weeks; type: organism-based; details: in vivo, 336 h, dose 150-300 mg/kg
[29] = Toxicity in Sprague-Dawley rat assessed as change in blood pressure at 150 to 300 mg/kg, po administered as repeated dose once daily for 2 weeks; type: organism-based; details: in vivo, 336 h, dose 150-300 mg/kg
[30] = Toxicity in Sprague-Dawley rat assessed as change in blood glucose level at 150 to 300 mg/kg, po administered as repeated dose once daily for 2 weeks; type: organism-based; details: in vivo, 336 h, dose 150-300 mg/kg
[31] = Toxicity in Sprague-Dawley rat assessed as body weight loss at 300 mg/kg, po administered as repeated dose once daily for 2 weeks; type: organism-based; details: in vivo, 336 h
[32] = Toxicity in Sprague-Dawley rat assessed as increase in AST level at 300 mg/kg, po administered as repeated dose once daily for 2 weeks; type: organism-based; details: in vivo, 336 h

Structure (SMILES): O=C1OC(CCCN2CCN(Cc3ccc(C(F)(F)F)cc3)CC2)c2ccccc21 (racemic)
- Tmax [1]: 1.02 min
- Activity [2]: 60.14%
- Activity [3]: 78.45%
- Activity [4]: 89.8%
- Ki (Glutamate NMDA receptor): 3.26 nM
- Activity (Rattus norvegicus [5]): 1.88
- Activity (Rattus norvegicus [6]): 16.08%
- Tmax [7]: 1.5 h
- Cmax [8]: 2360 ng/mL
- Cmax [9]: 972 ng/mL
- AUC(0-t) at 24 h [10]: 1450 ng·h/mL
- AUC(0-t) at 24 h [11]: 3670 ng·h/mL
- AUC(0-inf) [12]: 1580 ng·h/mL
- AUC(0-inf) [13]: 4070 ng·h/mL
- MRT inf [14]: 1.68 h
- MRT inf [15]: 3.25 h
- clearance [16]: 29.5 mL/min/kg
- half-life [17]: 1.73 h
- half-life [18]: 1.88 h
- bioavailability [19]: 63.4%
- Kp at 24 h [20]: 0.71
- Kp at 24 h [21]: 0.85
- Activity [22]: Non-Toxic
- Activity [23]: Non-Toxic
- Activity [24]: Non-Toxic
- Activity [25]: Non-Toxic
- Activity [26]: Non-Toxic
- Activity [27]: Non-Toxic
- Activity [28]: Non-Toxic
- Activity [29]: Non-Toxic
- Activity [30]: Non-Toxic
- Activity [31]: Toxic
- Activity [32]: Toxic
